pIC50: −log10 of the molar value.

As a reminder, the pIC50 is −log10 of the IC50, conventionally taken in molar units. As a reminder, the half-life is how long it takes for the measured level to halve.

The test system of one data set is human Notch 1. The data set is described as follows: Notch-CBF1 Transactivation Assay (Notch 1). It counts as cell-based. The note with it: read-out: Notch 1 IC50; Notch-CBF1 transactivation luciferase assay in transfected HeLa cells; some values are an average of N experiments. The text has this:
(§1) Notch-CBF1 Transactivation Assay
(§2) The Notch-CBF1 (C-promoter binding factor I) cell based transactivation assay is based on the ability of the released Notch intracellular domain fragments (NICDs) to function as transcription factors in conjunction with CBF1 and other nuclear factors. Luciferase assays were used to measure the antagonism of Notch-CBF1 transcriptional activity. HeLa cervical cancer cells are transiently co-transfected with pCDNA3.1/Hygro plasmids containing truncated Notch 1, Notch 2, Notch 3, or Notch 4 receptors and a PGL3 luciferase reporter vector containing 4 copies of CBF1 binding site. The cells were then tested for Notch-CBF1 activity in the absence or presence of test compounds. HeLa cells, maintained in DMEM (high glucose with HEPES), 1× glutamine/penicillin/streptomycin and 10% Fetal Bovine serum, were transiently transfected in a T175 Flask (4.5×10^6 cells/flask) using the Monster Transfection Kit (Minis #MIR2906) according to manufacturers specifications. Table 13 denotes respective DNA quantity for the transfections.
(§3) Assay media (5 μL) containing test compounds in final concentrations ranging from 5 μM to 8.4×10^−5 μM (3 fold serial dilutions) were added to the cells and the cell plates were then incubated for 18 hours at 37° C. and 5% CO2. Control wells contained DMSO vehicle (total counts) or 0.5 μM of an in-house small molecule inhibitor (background counts). Duplicates were used for each sample. Luciferase activity was measured after a 20-minute incubation with 50 μl STEADY-GLO® luciferase reagents according to manufacturer's specifications (Promega, Cat. #E2550) and analyzed by Envision plate reader (PerkinElmer, Boston, Mass.).
(§4) The antagonist effect of compounds was expressed as 100×[1−(average sample−average background)/(average total−average background)] where sample is the luciferase activity in the presence of test compound, background is equal to the luciferase activity in the presence of the small molecule inhibitor control and the total is signal induced in DMSO wells.

Another data set has as its system human Notch 3. The data set is described as follows: Notch-CBF1 Transactivation Assay (Notch 3). It counts as cell-based. Conditions: read-out: Notch 3 IC50; Notch-CBF1 transactivation luciferase assay in transfected HeLa cells; some values are an average of N experiments.
Source text: as §1, §2, §3, §4

A short description of data set [1]: human metabolic stability half-life assay. The note with it: microsomes, human liver microsomes. The procedure:
Metabolic Stability Half-Life Panel
Incubation with Liver Microsomes
On the technique in general: Liver microsomes are a subcellular fraction often used to study metabolism.

Data set [2] relates to Human T-cell acute lymphoblastic leukemia cell line TALL-1. The experiment in a line: Human Tumor Xenograft Models in Mice: TALL-1. It counts as in vivo. The note with it: for Antitumor Activity in TALL-1 (LCK), QD dosing / Antitumor Activity in TALL-1 (LCK), BID dosing: Log Cell Kill, oral administration, schedule QDx10, dose unit not given; for Antitumor Activity in TALL-1 (LCK), QD dosing: dose 20 (Ex 1, 52), 12 (Ex 10), 40 (Ex 40); for antitumor activity in the Human Tumor Xenograft Models in mice: oral administration (PO) either BID and/or QD, Table 24 (TALL-1), result in words; for Antitumor Activity in TALL-1 (LCK), BID dosing: dose 20 (Ex 35, 37). (In general: Xenograft models place foreign cells or tissue in a host animal.)

Where [3] appears, read: pH 7.4, CYP-mediated metabolic stability half life, NADPH-dependent.
Setting [4] is: pH 7.4, HLM (t1/2, min), CYP-mediated (NADPH-dependent), 0.5 μM compound, 45 min time course, some values are an average of N experiments.

Consider `Cc1cccc2c1NC(=O)[C@@H](NC(=O)[C@H](CCC(F)(F)F)[C@H](CC1CC1)C(N)=O)N=C2c1cccc(F)c1` [Example 10, (2R,3S)-3-(Cyclopropylmethyl)-N-((3S)-5-(3-fluorophenyl)-9-methyl-2-oxo-2,3-dihydro-1H-1,4-benzodiazepin-3-yl)-2-(3,3,3-trifluoropropyl)succinamide], for which the negative logarithm of the IC50 (pIC50) in the data set on human Notch 1 is 8.40; in the data set on human Notch 3 it was 8.01. Besides, the half-life at 0.5 µM is no less than 30 min in data set [1] (setting [3]) and 72 min in data set [1] (setting [4]). In addition, in data set [2], the “Antitumor Activity in TALL-1 (LCK), QD dosing” value is recorded as greater than 2.8. For the same compound, in data set [2], the “antitumor activity in the Human Tumor Xenograft Models in mice” value (“antitumor activity … in mice” below) was “showed antitumor activity”.

Regarding `CCC[C@H](C(N)=O)[C@@H](CCC(F)(F)F)C(=O)N[C@H]1N=C(c2ccccc2)c2cccc(F)c2NC1=O` [Example 37, (2R,3S)—N-((3S)-9-Fluoro-2-oxo-5-phenyl-2,3-dihydro-1H-1,4-benzodiazepin-3-yl)-3-propyl-2-(3,3,3-trifluoropropyl)succinamide], the figures for the pIC50 in the data set on human Notch 1 and with human Notch 3 were 8.36 and 7.95, respectively. Further, the half-life at 0.5 µM in data set [1] (setting [3]) is no less than 30 min; in data set [1] (setting [4]), 43 min. Also, the “Antitumor Activity in TALL-1 (LCK), BID dosing” value in data set [2] is given as 2.0. Besides, in data set [2], the “antitumor activity … in mice” value is listed as “showed antitumor activity”.

Turning to `CCC[C@H](C(N)=O)[C@@H](CCC(F)(F)F)C(=O)N[C@H]1N=C(c2ccccc2)c2cccc(C(F)(F)F)c2NC1=O` [Example 35, (2R,3S)—N-((3S)-2-Oxo-5-phenyl-9-(trifluoromethyl)-2,3-dihydro-1H-1,4-benzodiazepin-3-yl)-3-propyl-2-(3,3,3-trifluoropropyl)succinamide], the negative logarithm of the IC50 (pIC50) is 7.79 in the data set on human Notch 1 and 7.89 with human Notch 3. Moreover, the half-life at 0.5 µM in data set [1] (setting [3]) was no less than 30 min; in data set [1] (setting [4]), 36 min. The “Antitumor Activity in TALL-1 (LCK), BID dosing” value in data set [2] worked out at 3.1. Moreover, the “antitumor activity … in mice” value in data set [2] is “showed antitumor activity”.

Turning to `CC(C)[C@H](N)C(=O)OCN1C(=O)[C@@H](NC(=O)[C@H](CCC(F)(F)F)[C@H](CC2CC2)C(N)=O)N=C(c2ccccc2)c2cccc(F)c21` [Example 52, ((3S)-3-(((2R)-2-((1S)-2-Amino-1-(cyclopropylmethyl)-2-oxoethyl)-5,5,5-trifluoropentanoyl)amino)-9-fluoro-2-oxo-5-phenyl-2,3-dihydro-1H-1,4-benzodiazepin-1-yl)methyl L-valinate], in data set [2], the “Antitumor Activity in TALL-1 (LCK), QD dosing” value came out at 5.7 and the “antitumor activity … in mice” value is “showed antitumor activity”.

For `NC(=O)[C@@H](CC1CC1)[C@@H](CCC(F)(F)F)C(=O)N[C@H]1N=C(c2ccccc2)c2cccc(OC3CC3)c2NC1=O` [Example 6, (2R,3S)-3-(Cyclopropylmethyl)-N-((3S)-9-(cyclopropyloxy)-2-oxo-5-phenyl-2,3-dihydro-1H-1,4-benzodiazepin-3-yl)-2-(3,3,3-trifluoropropyl)succinamide], the pIC50 is 8.14 in the data set on human Notch 1 and 8.07 in the data set on human Notch 3. Moreover, the figures for the half-life at 0.5 µM in data set [1] (setting [3]) and in data set [1] (setting [4]) were no less than 30 min and 83 min, respectively.

`NC(=O)[C@@H](CC1CC1)[C@@H](CCC(F)(F)F)C(=O)N[C@H]1N=C(c2ccccc2)c2cccc(C3CC3)c2NC1=O` [Example 14, (2R,3S)-3-(Cyclopropylmethyl)-N-(9-cyclopropyl-2-oxo-5-phenyl-2,3-dihydro-1H-1,4-benzodiazepin-3-yl)-2-(3,3,3-trifluoropropyl)succinamide]: the negative logarithm of the IC50 (pIC50) in the data set with human Notch 1 was 8.37; in the data set with human Notch 3, 8.29. The half-life at 0.5 µM was no less than 30 min in data set [1] (setting [3]) and 41 min in data set [1] (setting [4]).

For the compound `NC(=O)[C@@H](CC1CC1)[C@@H](CCC(F)(F)F)C(=O)N[C@H]1N=C(c2cccc(Cl)c2)c2cccc(F)c2NC1=O` [Example 24, (2R,3S)—N-((3S)-5-(3-Chlorophenyl)-9-fluoro-2-oxo-2,3-dihydro-1H-1,4-benzodiazepin-3-yl)-3-(cyclopropylmethyl)-2-(3,3,3-trifluoropropyl)succinamide], the results for the negative logarithm of the IC50 (pIC50) in the data set on human Notch 1 and with human Notch 3 were 8.43 and 8.57, respectively. The half-life at 0.5 µM in data set [1] (setting [3]) is no less than 30 min; in data set [1] (setting [4]), 76 min.

As for `Cc1ccc(C2=N[C@H](NC(=O)[C@H](CCC(F)(F)F)[C@H](CC3CC3)C(N)=O)C(=O)Nc3c(F)cccc32)cc1` [Example 16, (2R,3S)-3-(Cyclopropylmethyl)-N-((3S)-9-fluoro-5-(4-methylphenyl)-2-oxo-2,3-dihydro-1H-1,4-benzodiazepin-3-yl)-2-(3,3,3-trifluoropropyl)succinamide], the pIC50 in the data set with human Notch 1 was 8.42; in the data set with human Notch 3 it was 7.80. The half-life at 0.5 µM was no less than 30 min in data set [1] (setting [3]) and 75 min in data set [1] (setting [4]).

As for `Cc1cc(F)cc(C2=N[C@H](NC(=O)[C@H](CCC(F)(F)F)[C@H](CC3CC3)C(N)=O)C(=O)Nc3c(Cl)cccc32)c1` [Example 3, (2R,3S)—N-((3S)-9-Chloro-5-(3-fluoro-5-methylphenyl)-2-oxo-2,3-dihydro-1H-benzo[e][1,4]diazepin-3-yl)-3-(cyclopropylmethyl)-2-(3,3,3-trifluoropropyl)succinamide], the negative logarithm of the IC50 (pIC50) in the data set on human Notch 1 was 8.29; in the data set with human Notch 3, 8.12. Moreover, the half-life at 0.5 µM in data set [1] (setting [3]) is no less than 30 min; in data set [1] (setting [4]) it was 77 min.

Turning to `NC(=O)[C@@H](CC1CC1)[C@@H](CCC(F)(F)F)C(=O)N[C@H]1N=C(c2ccccc2)c2cccc(Cl)c2NC1=O` [Example 42, (2R,3S)—N-((3S)-9-Chloro-2-oxo-5-phenyl-2,3-dihydro-1H-1,4-benzodiazepin-3-yl)-3-(cyclopropylmethyl)-2-(3,3,3-trifluoropropyl)succinamide], the pIC50 with human Notch 1 was 8.72; with human Notch 3, 8.46. Further, the figures for the half-life at 0.5 µM in data set [1] (setting [3]) and in data set [1] (setting [4]) were no less than 30 min and 87 min, respectively.

In the case of `NC(=O)[C@@H](CC1CC1)[C@@H](CCC(F)(F)F)C(=O)N[C@H]1N=C(c2cccc(F)c2)c2cccc(OC3CC3)c2NC1=O` [Example 5, (2R,3S)-3-(Cyclopropylmethyl)-N-((3S)-9-(cyclopropyloxy)-5-(3-fluorophenyl)-2-oxo-2,3-dihydro-1H-1,4-benzodiazepin-3-yl)-2-(3,3,3-trifluoropropyl)succinamide], the results for the negative-log IC50 (pIC50) in the data set on human Notch 1 and with human Notch 3 were 8.29 and 8.05, respectively. The half-life at 0.5 µM in data set [1] (setting [3]) was no less than 30 min; in data set [1] (setting [4]), 74 min.

On to `CCC[C@H](C(N)=O)[C@@H](CCC(F)(F)F)C(=O)N[C@H]1N=C(c2ccccc2)c2cccc(C)c2NC1=O` [Example 15, (2R,3S)—N-((3S)-9-Methyl-2-oxo-5-phenyl-2,3-dihydro-1H-1,4-benzodiazepin-3-yl)-3-propyl-2-(3,3,3-trifluoropropyl)succinamide], for which the negative-log IC50 (pIC50) with human Notch 1 is 7.90; in the data set on human Notch 3, 8.03. Moreover, the results for the half-life at 0.5 µM in data set [1] (setting [3]) and in data set [1] (setting [4]) were no less than 30 min and 40 min, respectively.

Turning to `COc1cccc2c1NC(=O)[C@@H](NC(=O)[C@H](CCC(F)(F)F)[C@H](CC1CC1)C(N)=O)N=C2c1cccc(C)c1` [Example 31, (2R,3S)-3-(Cyclopropylmethyl)-N-((3S)-9-methoxy-5-(3-methylphenyl)-2-oxo-2,3-dihydro-1H-1,4-benzodiazepin-3-yl)-2-(3,3,3-trifluoropropyl)succinamide], the negative logarithm of the IC50 (pIC50) in the data set with human Notch 1 is 8.25; with human Notch 3 it was 8.10. For the same compound, the half-life at 0.5 µM is no less than 30 min in data set [1] (setting [3]) and 52 min in data set [1] (setting [4]).

In the case of `Cc1cccc(C2=N[C@H](NC(=O)[C@H](CCC(F)(F)F)[C@H](CC3CC3)C(N)=O)C(=O)Nc3c(O)cccc32)c1` [Example 8, (2R,3S)-3-(Cyclopropylmethyl)-N-((3S)-9-hydroxy-5-(3-methylphenyl)-2-oxo-2,3-dihydro-1H-1,4-benzodiazepin-3-yl)-2-(3,3,3-trifluoropropyl)succinamide], the figures for the negative-log IC50 (pIC50) in the data set on human Notch 1 and with human Notch 3 were 8.25 and 7.80, respectively. In addition, the half-life at 0.5 µM is no less than 30 min in data set [1] (setting [3]) and 37 min in data set [1] (setting [4]).

The values above are taken from US9242941B2, “Alkyl, fluoroalkyl-1,4-benzodiazepinone compounds” (BRISTOL-MYERS SQUIBB COMPANY, priority 2012, dated 2016).
